This note sets out measurements from PubChem BioAssay AID248 (DTP/NCI, 2004).

Several values for one entry are separate records, joined by “and”; a condition that tells them apart may be missing. Identical values can stand only once. Toxic doses and inconclusive results are not listed.

The test system of this assay is L1210 leukemia ip in BDF1 mice, survival T/C. The experiment in a line: NCI In Vivo Anticancer Drug Screen. Data for tumor model L1210 Leukemia (intraperitoneal) in B6D2F1 (BDF1) mice. As to conditions: endpoint: mean survival time, higher = longer survival. Put shortly: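 Transplanted-tumor mice were given test agent; controls received vehicle only. Survival readings from the two groups were divided (treated over control).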

The mark [1] stands for this setting: dose: 100.0 mg/kg/injection, schedule: Q04DX002 (ip), vehicle: Klucel (hydroxypropylcellulose) (HPC).
The mark [2] stands for this setting: dose: 200.0 mg/kg/injection, schedule: Q04DX002 (ip), vehicle: Klucel (hydroxypropylcellulose) (HPC).
[3] abbreviates: dose: 400.0 mg/kg/injection, schedule: Q04DX002 (ip), vehicle: Klucel (hydroxypropylcellulose) (HPC).
Setting [4] is: dose: 100.0 mg/kg/injection, schedule: Q04DX003 (ip), vehicle: saline.
Setting [5] is: dose: 200.0 mg/kg/injection, schedule: Q04DX003 (ip), vehicle: saline.
Where [6] appears, read: dose: 400.0 mg/kg/injection, schedule: Q04DX003 (ip), vehicle: saline.
The mark [7] stands for this setting: dose: 100.0 mg/kg/injection, schedule: Q04DX003 (ip), vehicle: saline with Tween-80.
The mark [8] stands for this setting: dose: 200.0 mg/kg/injection, schedule: Q04DX003 (ip), vehicle: saline with Tween-80.
Where [9] appears, read: dose: 400.0 mg/kg/injection, schedule: Q04DX003 (ip), vehicle: saline with Tween-80.

Regarding `CC(C)CC([NH-])C(=O)O.CC(C)CC([NH-])C(=O)O.CC(C)CC([NH-])C(=O)O.[Co+3]` (stereo not drawn), the T/C was 106 % of control (dose: 12.5 mg/kg/injection, schedule: Q01DX009 (ip), vehicle: water); 95 % of control (dose: 25.0 mg/kg/injection, schedule: Q01DX009 (ip), vehicle: water); 98 % of control and 104 % of control (dose: 50.0 mg/kg/injection, schedule: Q01DX009 (ip), vehicle: water); 117 % of control (dose: 100.0 mg/kg/injection, schedule: Q01DX009 (ip), vehicle: water); 107 % of control and 98 % of control (dose: 100.0 mg/kg/injection, schedule: Q04DX003 (ip), vehicle: water); 111 % of control (dose: 200.0 mg/kg/injection, schedule: Q01DX009 (ip), vehicle: water). For the same compound, the T/C by setting is: (dose: 200.0 mg/kg/injection, schedule: Q04DX003 (ip), vehicle: water) 110 % of control and 112 % of control; (dose: 400.0 mg/kg/injection, schedule: Q04DX003 (ip), vehicle: water) 102 % of control.
For `O=C(NS(=O)(=O)c1ccc(Cl)c(Cl)c1)NS(=O)(=O)c1ccc(Cl)c(Cl)c1`, the T/C is 100 % of control (dose: 100.0 mg/kg/injection, schedule: Q01DX001 (ip), vehicle: saline with Tween-80) and 99 % of control (dose: 200.0 mg/kg/injection, schedule: Q01DX001 (ip), vehicle: saline with Tween-80).
For `CS(=O)(=O)OCCN(CCOS(C)(=O)=O)c1cccc([N+](=O)[O-])c1`, the T/C (dose: 1.0 mg/kg/injection, schedule: Q01DX001 (ip), vehicle: saline) was 101 % of control; the T/C (dose: 2.0 mg/kg/injection, schedule: Q01DX001 (ip), vehicle: saline) was 101 % of control; the T/C (dose: 4.0 mg/kg/injection, schedule: Q01DX001 (ip), vehicle: saline) is 101 % of control; the T/C (dose: 8.0 mg/kg/injection, schedule: Q01DX001 (ip), vehicle: saline) was 102 % of control; the T/C (dose: 152.0 mg/kg/injection, schedule: Q01DX001 (ip), vehicle: saline) is 113 % of control; the T/C (dose: 228.0 mg/kg/injection, schedule: Q01DX015 (ip), vehicle: saline) is 118 % of control. Moreover, the T/C (dose: 342.0 mg/kg/injection, schedule: Q01DX001 (ip), vehicle: saline) was 95 % of control; the T/C (dose: 342.0 mg/kg/injection, schedule: Q01DX015 (ip), vehicle: saline) was 92 % of control; the T/C (dose: 1024.0 mg/kg/injection, schedule: Q01DX001 (ip), vehicle: saline) is 102 % of control.
For `O=C1OCCC1C(=O)C(O)(C(F)(F)F)C(F)(F)F` (stereo not drawn), the T/C runs as follows: (dose: 100.0 mg/kg/injection, schedule: Q01DX009 (ip), vehicle: other) 96 % of control; (dose: 200.0 mg/kg/injection, schedule: Q01DX009 (ip), vehicle: other) 100 % of control; (dose: 400.0 mg/kg/injection, schedule: Q01DX009 (ip), vehicle: other) 94 % of control.
`COc1ccc(NC(=O)NCc2ccc(C)c(C)c2)cc1`: the T/C was 118 % of control under setting [1], 96 % of control under setting [2] and 104 % of control under setting [3].
Regarding `CC(C)(CC(=O)c1ccccc1)CC(=O)c1ccccc1`, the T/C is, setting by setting: (dose: 100.0 mg/kg/injection, schedule: Q01DX001 (ip), vehicle: saline) 109 % of control; (dose: 200.0 mg/kg/injection, schedule: Q01DX001 (ip), vehicle: saline) 116 % of control; (dose: 400.0 mg/kg/injection, schedule: Q01DX001 (ip), vehicle: saline) 98 % of control.
In the case of `CCCCCCCCCCCCCCCCCCN1CCS(=O)CC1`, the T/C was 98 % of control (dose: 100.0 mg/kg/injection, schedule: Q01DX001 (ip), vehicle: Klucel (hydroxypropylcellulose) (HPC)); 100 % of control (dose: 200.0 mg/kg/injection, schedule: Q01DX001 (ip), vehicle: Klucel (hydroxypropylcellulose) (HPC)); 102 % of control (dose: 400.0 mg/kg/injection, schedule: Q01DX001 (ip), vehicle: Klucel (hydroxypropylcellulose) (HPC)).
`COC(=O)Cc1ccc([N+](=O)[O-])cc1[N+](=O)[O-]`: the T/C is 101 % of control under setting [4], 102 % of control under setting [5] and 93 % of control under setting [6].
In the case of `ClC(Cl)(c1ccccc1)C1(c2ccccc2)CC1`, the T/C is, setting by setting: (dose: 75.0 mg/kg/injection, schedule: Q01DX001 (ip), vehicle: acetone) 107 % of control; (dose: 150.0 mg/kg/injection, schedule: Q01DX001 (ip), vehicle: acetone) 109 % of control.
In the case of `CCC(=O)Nc1cccc(OC(=O)N(C(C)C)C(C)C)c1`, the T/C was 93 % of control under setting [7], 93 % of control under setting [8] and 104 % of control under setting [9].
As to `O=C(O)CCc1nn(-c2ccccc2)c(=O)c2ccccc12`, the T/C under setting [1] was 106 % of control and the T/C under setting [2] is 95 % of control.
With `OC1OC(CCl)C(Cl)C(O)C1O` (stereo not drawn), the T/C was 106 % of control under setting [4], 101 % of control under setting [5] and 98 % of control under setting [6].
As for `NC1CC[N-]CC1.NC1CC[N-]CC1.NC1CC[N-]CC1.NC1CC[N-]CC1.[Cl][Rh][Cl]`, the T/C runs as follows: (dose: 6.25 mg/kg/injection, schedule: Q01DX009 (ip), vehicle: saline with Tween-80) 100 % of control; (dose: 12.5 mg/kg/injection, schedule: Q01DX009 (ip), vehicle: saline with Tween-80) 96 % of control; (dose: 25.0 mg/kg/injection, schedule: Q01DX009 (ip), vehicle: saline with Tween-80) 104 % of control.
Take `O=C(O)C1CC/C=C\CCC1` (stereo not drawn): the T/C was 99 % of control (dose: 100.0 mg/kg/injection, schedule: Q01DX009 (sc), vehicle: olive oil, sesame oil, peanut oil); 109 % of control (dose: 100.0 mg/kg/injection, schedule: Q04DX003 (sc), vehicle: olive oil, sesame oil, peanut oil); 89 % of control (dose: 200.0 mg/kg/injection, schedule: Q01DX009 (sc), vehicle: olive oil, sesame oil, peanut oil); 106 % of control (dose: 200.0 mg/kg/injection, schedule: Q04DX003 (sc), vehicle: olive oil, sesame oil, peanut oil); 88 % of control (dose: 400.0 mg/kg/injection, schedule: Q01DX009 (sc), vehicle: olive oil, sesame oil, peanut oil); 97 % of control (dose: 400.0 mg/kg/injection, schedule: Q04DX003 (sc), vehicle: olive oil, sesame oil, peanut oil).
With `CS(=O)(=O)OCCN(CCOS(C)(=O)=O)c1ccc(C=Nc2cccc(C(=O)O)c2)cc1`, the T/C (dose: 2.5 mg/kg/injection, schedule: Q04DX003 (ip), vehicle: Klucel (hydroxypropylcellulose) (HPC)) was 111 % of control; the T/C (dose: 5.0 mg/kg/injection, schedule: Q04DX003 (ip), vehicle: Klucel (hydroxypropylcellulose) (HPC)) was 120 % of control; the T/C (dose: 80.0 mg/kg/injection, schedule: Q04DX003 (ip), vehicle: Klucel (hydroxypropylcellulose) (HPC)) is 91 % of control.
On to `O=c1[nH]cnc2c(C3OC(CO)C(O)C3O)[nH]nc12` (stereo not drawn), for which the T/C was 86 % of control (dose: 10.0 mg/kg/injection, schedule: Q01DX015 (ip), vehicle: carboxymethylcellulose (CMC)) and 88 % of control (dose: 20.0 mg/kg/injection, schedule: Q01DX015 (ip), vehicle: carboxymethylcellulose (CMC)).
`O=C(NCP(=O)(O)O)c1cccnc1`: the T/C was 94 % of control (dose: 100.0 mg/kg/injection, schedule: Q04DX003 (ip), vehicle: saline sonified); 100 % of control (dose: 200.0 mg/kg/injection, schedule: Q04DX003 (ip), vehicle: saline sonified); 102 % of control (dose: 400.0 mg/kg/injection, schedule: Q04DX003 (ip), vehicle: saline sonified).
`O=C(COc1cc(Cl)c(Cl)cc1Cl)Oc1ccc(Cl)cc1Cl`: the T/C by setting is: under setting [1], 94 % of control; under setting [2], 91 % of control; under setting [3], 98 % of control.
`CC(=O)OC1CCC(NC(=O)N(CCCl)N=O)CC1` (stereo not drawn): the T/C reads like this: (dose: 15.0 mg/kg/injection, schedule: Q01DX001 (ip), vehicle: other) 225 % of control; (dose: 30.0 mg/kg/injection, schedule: Q01DX001 (ip), vehicle: other) 352 % of control; (dose: 62.0 mg/kg/injection, schedule: Q01DX001 (ip), vehicle: other) 244 % of control.
In the case of `CCCNC(=O)Nc1cccc(Cl)c1C`, the T/C is, setting by setting: (dose: 100.0 mg/kg/injection, schedule: Q01DX009 (ip), vehicle: saline with Tween-80) 102 % of control; under setting [7], 101 % of control; (dose: 200.0 mg/kg/injection, schedule: Q01DX009 (ip), vehicle: saline with Tween-80) 94 % of control; under setting [8], 94 % of control; (dose: 400.0 mg/kg/injection, schedule: Q01DX009 (ip), vehicle: saline with Tween-80) 100 % of control; under setting [9], 100 % of control.
